Assay results from publication PMC5064435, “Inhibition of endoplasmic reticulum glucosidases is required for in vitro and in vivo dengue antiviral activity by the iminosugar UV-4” (Antiviral Research, 2016).
pIC50: −log10 of the molar value. Where a name gives a salt, the structure may show the parent alone.

Legend:
Type in all cases: biochemical
Conditions in all cases: read-out: IC50 ^a / UV-4B
[1] = target: T1, Human lysosome (α-galactosidase) (Homo sapiens, UniProt P06280); test: enzyme inhibition assay
T1 construct: gene GLA
T1 sequence (P06280 32-429): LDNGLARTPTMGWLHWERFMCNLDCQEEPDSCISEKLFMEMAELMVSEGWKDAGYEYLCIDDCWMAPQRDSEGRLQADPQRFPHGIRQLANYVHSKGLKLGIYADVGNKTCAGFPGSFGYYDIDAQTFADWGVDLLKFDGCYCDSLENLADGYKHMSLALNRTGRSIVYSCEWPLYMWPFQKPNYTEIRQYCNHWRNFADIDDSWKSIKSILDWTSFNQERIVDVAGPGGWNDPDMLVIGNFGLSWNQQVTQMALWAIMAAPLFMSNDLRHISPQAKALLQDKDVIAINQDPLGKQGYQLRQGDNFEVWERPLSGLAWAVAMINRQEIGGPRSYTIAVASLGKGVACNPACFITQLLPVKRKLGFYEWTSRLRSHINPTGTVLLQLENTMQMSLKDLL
From the text: enzyme inhibition assay on Human lysosome (α-galactosidase)

[2] = target: T2, Human lysosome (α-glucosidase) (Homo sapiens, UniProt P10253); test: enzyme inhibition assay
T2 construct: gene GAA
From the text: enzyme inhibition assay on Human lysosome (α-glucosidase)

[3] = target: T3, Mouse ER α-glucosidase II (Mus musculus, UniProt Q8BHN3); test: enzyme inhibition assay, purified enzyme
T3 construct: gene Ganab; with Glucosidase 2 subunit beta
T3 sequence (Q8BHN3 33-944): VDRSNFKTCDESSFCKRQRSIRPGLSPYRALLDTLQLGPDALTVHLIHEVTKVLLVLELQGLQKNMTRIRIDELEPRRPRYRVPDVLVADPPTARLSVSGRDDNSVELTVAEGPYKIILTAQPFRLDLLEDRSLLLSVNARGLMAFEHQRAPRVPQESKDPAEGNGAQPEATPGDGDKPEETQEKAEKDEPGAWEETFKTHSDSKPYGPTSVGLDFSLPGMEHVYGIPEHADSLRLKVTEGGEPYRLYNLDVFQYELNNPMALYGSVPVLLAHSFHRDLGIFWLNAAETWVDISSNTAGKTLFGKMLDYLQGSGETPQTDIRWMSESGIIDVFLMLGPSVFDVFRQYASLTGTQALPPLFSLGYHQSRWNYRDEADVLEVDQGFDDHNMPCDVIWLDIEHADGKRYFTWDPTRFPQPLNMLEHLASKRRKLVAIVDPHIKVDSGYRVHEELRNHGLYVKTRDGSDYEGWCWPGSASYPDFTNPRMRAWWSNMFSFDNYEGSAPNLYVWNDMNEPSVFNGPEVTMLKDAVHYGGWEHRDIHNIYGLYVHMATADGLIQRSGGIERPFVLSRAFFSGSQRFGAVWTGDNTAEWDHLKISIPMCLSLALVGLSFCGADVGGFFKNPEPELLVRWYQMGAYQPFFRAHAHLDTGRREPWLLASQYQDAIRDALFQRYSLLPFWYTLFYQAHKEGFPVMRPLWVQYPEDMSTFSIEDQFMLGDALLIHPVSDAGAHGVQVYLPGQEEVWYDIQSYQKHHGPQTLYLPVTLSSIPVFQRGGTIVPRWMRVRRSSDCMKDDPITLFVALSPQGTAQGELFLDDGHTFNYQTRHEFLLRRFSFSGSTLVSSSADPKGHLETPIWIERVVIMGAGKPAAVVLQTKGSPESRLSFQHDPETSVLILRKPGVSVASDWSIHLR
T3 sequence (O08795 15-521 partner): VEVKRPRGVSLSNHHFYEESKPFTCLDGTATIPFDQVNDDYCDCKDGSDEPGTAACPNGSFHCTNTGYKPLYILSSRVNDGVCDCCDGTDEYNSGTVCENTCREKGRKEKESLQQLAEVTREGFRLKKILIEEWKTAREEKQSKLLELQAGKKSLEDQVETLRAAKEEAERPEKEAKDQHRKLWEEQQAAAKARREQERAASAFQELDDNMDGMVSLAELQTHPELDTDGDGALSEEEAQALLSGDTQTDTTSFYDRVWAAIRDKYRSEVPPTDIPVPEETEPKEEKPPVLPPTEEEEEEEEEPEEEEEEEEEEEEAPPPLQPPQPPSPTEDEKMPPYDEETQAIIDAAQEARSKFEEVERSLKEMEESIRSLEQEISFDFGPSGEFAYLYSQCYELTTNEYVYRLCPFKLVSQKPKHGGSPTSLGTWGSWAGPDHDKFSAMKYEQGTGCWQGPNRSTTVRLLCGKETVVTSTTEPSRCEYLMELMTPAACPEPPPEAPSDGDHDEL
From the text: enzyme inhibition assay, purified enzyme on Mouse ER α-glucosidase II

[4] = target: T4, Rat intestinal sucrase (Rattus norvegicus, UniProt P23739); test: enzyme inhibition assay
T4 construct: gene Si; native rat intestinal enzyme; sucrase (C-terminal) subunit of sucrase-isomaltase
T4 sequence (P23739 1014-1841 limits assumed): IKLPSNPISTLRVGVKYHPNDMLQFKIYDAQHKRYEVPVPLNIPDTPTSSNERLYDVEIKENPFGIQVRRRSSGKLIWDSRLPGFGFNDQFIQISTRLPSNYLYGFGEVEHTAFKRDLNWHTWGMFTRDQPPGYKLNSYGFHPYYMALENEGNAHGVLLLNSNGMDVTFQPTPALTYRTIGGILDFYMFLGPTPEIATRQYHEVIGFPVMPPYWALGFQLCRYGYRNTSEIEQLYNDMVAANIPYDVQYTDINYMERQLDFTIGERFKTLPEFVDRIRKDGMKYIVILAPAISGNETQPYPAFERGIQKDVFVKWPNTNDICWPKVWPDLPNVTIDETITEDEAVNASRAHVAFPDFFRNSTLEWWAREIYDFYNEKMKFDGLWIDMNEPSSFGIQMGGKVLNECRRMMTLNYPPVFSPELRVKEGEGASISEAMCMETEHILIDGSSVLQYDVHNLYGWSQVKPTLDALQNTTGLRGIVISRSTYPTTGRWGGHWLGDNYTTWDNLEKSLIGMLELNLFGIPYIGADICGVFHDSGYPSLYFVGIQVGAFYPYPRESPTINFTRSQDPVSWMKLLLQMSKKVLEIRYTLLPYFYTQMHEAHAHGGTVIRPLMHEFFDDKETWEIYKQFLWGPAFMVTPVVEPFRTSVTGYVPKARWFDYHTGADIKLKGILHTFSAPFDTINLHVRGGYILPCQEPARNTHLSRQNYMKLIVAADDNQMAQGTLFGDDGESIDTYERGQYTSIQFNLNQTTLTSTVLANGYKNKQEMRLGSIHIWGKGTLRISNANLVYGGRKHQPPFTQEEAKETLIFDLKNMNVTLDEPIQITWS
From the text: enzyme inhibition assay on Rat intestinal sucrase

[5] = target: T5, Rat intestinal isomaltase (Rattus norvegicus, UniProt P23739); test: enzyme inhibition assay
T5 construct: gene Si; native rat intestinal enzyme; isomaltase (N-terminal) subunit of sucrase-isomaltase
T5 sequence (P23739 1-1013 limits assumed): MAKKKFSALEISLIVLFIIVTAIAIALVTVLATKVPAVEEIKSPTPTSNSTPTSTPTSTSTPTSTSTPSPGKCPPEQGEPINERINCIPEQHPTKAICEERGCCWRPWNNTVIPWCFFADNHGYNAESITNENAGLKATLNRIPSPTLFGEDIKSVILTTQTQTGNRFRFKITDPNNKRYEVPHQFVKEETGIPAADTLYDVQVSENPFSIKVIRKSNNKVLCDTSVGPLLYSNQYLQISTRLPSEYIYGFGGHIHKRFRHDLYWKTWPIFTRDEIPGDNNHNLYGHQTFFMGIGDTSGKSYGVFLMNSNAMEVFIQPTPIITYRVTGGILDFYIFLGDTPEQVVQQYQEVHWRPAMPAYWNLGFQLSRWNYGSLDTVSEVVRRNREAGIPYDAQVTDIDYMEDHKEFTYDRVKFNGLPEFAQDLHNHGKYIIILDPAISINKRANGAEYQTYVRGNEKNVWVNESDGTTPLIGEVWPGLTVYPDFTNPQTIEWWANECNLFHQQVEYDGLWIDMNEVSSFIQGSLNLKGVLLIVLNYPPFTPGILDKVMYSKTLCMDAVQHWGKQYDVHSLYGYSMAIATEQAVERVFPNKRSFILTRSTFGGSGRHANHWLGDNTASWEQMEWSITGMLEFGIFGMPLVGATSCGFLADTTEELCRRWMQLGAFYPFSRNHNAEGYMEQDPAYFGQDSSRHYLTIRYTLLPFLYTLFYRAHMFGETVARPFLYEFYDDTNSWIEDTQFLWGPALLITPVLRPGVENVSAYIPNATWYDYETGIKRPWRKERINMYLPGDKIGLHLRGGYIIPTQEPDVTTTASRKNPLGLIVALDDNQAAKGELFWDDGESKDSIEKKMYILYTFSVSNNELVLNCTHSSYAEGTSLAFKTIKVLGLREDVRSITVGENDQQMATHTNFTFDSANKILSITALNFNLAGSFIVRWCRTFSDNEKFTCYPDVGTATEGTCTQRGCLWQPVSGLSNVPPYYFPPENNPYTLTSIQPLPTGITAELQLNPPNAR
From the text: enzyme inhibition assay on Rat intestinal isomaltase

[6] = target: T6, Rat intestinal maltase; test: enzyme inhibition assay
T6 construct: gene Mgam; native rat intestinal enzyme activity; maltase may be maltase-glucoamylase and/or sucrase-isomaltase
From the text: enzyme inhibition assay on Rat intestinal maltase

- pIC50 [1]: < 3.00
- pIC50 [2]: 6.41
- pIC50 [3]: 5.74
- pIC50 [4]: 6.30
- pIC50 [5]: 5.85
- pIC50 [6]: 6.55
SMILES: COCCCCCCCCCN1C[C@H](O)[C@@H](O)[C@H](O)[C@H]1CO [UV-4B, N-(9′-methoxynonyl)-1-deoxynojirimycin hydrochloride]
